Measurements as given in US11926826B2, “Twist signaling inhibitor compositions and methods of using the same” (City of Hope, priority 2016, dated 2024).

How the values were obtained:
[1] = test system: TWIST; test: TWIST knockdown after Lipofectamine 2000 transfection in A2780R (western blot); assay type: cell-based; conditions: over three days post transfection
Procedure: Cell Culture. A2780R and all derivatives of Ovcar8 were grown in RPMI 1640 (Genesee Scientific, San Diego, CA) in a tissue culture incubator at 37° C., 5% CO2, and 90% humidity. Growth medium was supplemented with 10% fetal bovine serum and 1% penicillin/streptomycin. Cells were passaged every 2-4 days using 0.25% trypsin (Genesee Scientific). Where indicated, cells were transfected with Lipofectamine 2000 (Thermo Fisher, Waltham, MA) according to the manufacturer's instructions. A2780R cells are a cisplatin resistant derivative of A2780.
(§1) Western Blotting. Following siRNA treatment, cells were pelleted and lysed in RIPA buffer. Protein concentration was determined by BCA assay (Thermo Fisher). Following SDS-PAGE, protein was transferred to Amersham PVDF membrane (Genesee Scientific) using a BioRad Trans-Blot SD semi-dry transfer unit. Blots were then blocked in milk for one hour at room temperature or overnight at 4° C. Incubation with primary antibody took place for one hour at room temperature or overnight at 4° C. Antibodies were diluted in 5% milk, with 0.1-0.2% Tween-20. Antibodies used were TWIST 2c1a (Santa Cruz Biotechnology, Dallas, TX) at 1:250-1:500 dilution, β-Actin, A1978 (Sigma Aldrich, St. Louis, MO) at 1:2500-1:5000 dilution; and Horseradish Peroxidase (HRP) conjugated anti-mouse secondary antibodies. […]

[2] = test system: TWIST; test: TWIST knockdown after MSN delivery of siRNA in ovarian cancer cell lines; assay type: cell-based; conditions: A2780R and Ovcar8; loaded onto MSNs
Procedure: MSN design and delivery. Mesoporous silica nanoparticles (MSNs) were synthesized utilizing the sol-gel method as described previously. First, 250 mg 95% cetyltrimethylammonium bromide (CTAB) was dissolved in 120 ml of water with 875 μl 2M sodium hydroxide solution, at 80° C. Next, 1.2 ml of 98% tetraethylorthosilicate was added. After 15 min, 300 μl of 42% 3-(trihydroxysilyl) propyl methylphosphonate was added, and the mixture was stirred 2 hr. Particles were collected using centrifugation and washed with methanol. Acidic methanol was then used to remove any remaining CTAB surfactants. Zeta potential at 50 μg/mL was 43.75 mV [14]. All chemicals were obtained from Aldrich (St. Louis, MO). Particles were ˜120 nm in diameter, with 2.5 nm pores. Low molecular weight (1.8 kD branched polymer) polyethyleneimine (PEI) was electrostatically attached to the particle surface to provide a positive change to attract negatively charged siRNA [21]. To complex siRNA for in vitro experiments, 10 μl siRNA at 10 μM was mixed with 70 ul MSNs at 500 μg/ml and 20 μl water, and the mixture was incubated overnight at 4° C. on a roller. The following day, 100 μl of the MSN-siRNA complexes was added to each well of a 6-well plate containing 1900 μl normal medium.
as §1

[3] = test system: SUM 1315 cells; test: Wound healing assay, SUM 1315; assay type: cell-based, human; conditions: YTZ3-15 transfection; compared to siQ
Procedure: Wound Healing Assay. To examine direction cell migration in vitro wound healing assays were performed as described previously. In summary, SUM 1315 cells (parental, eGFP+luc, shScram, shTwistA, and shTwistB) were grown in the conditions described above (2.1) in 6-well tissue culture plates. Once cells reached 80% confluency, a sterile 200 μl pipette tip was used to scratch a line in the monolayer of cells. Images were taken immediately after the scratch and at several time points thereafter using a Nikon TE-2000S microscope and SPOT Advanced software (Diagnostic Instruments, Sterling Heights, MI). Care was taken to always capture images in the same location for each time point. Additionally, SUM 1315 cells were transfected with siQ, siTwistA, or siTwistB using YTZ3-15 at a 50 nM final concentration. Cells were incubated with YTZ3-15+siRNA for 24 hours at 37° C., 5% CO2, and 90% humidity in a tissue culture incubator; the plates were then scratched with the 200 μl pipette tip.

“si419: anti-TWIST siRNA; passenger 5′-GGACAAGCUGAGCAAGAUU-3′ (SEQ ID No: 1), guide 5′-AAUCUUGCUCAGCUUGUCCUU-3′ (SEQ ID No: 2) (listed as RNA, chemistry not fully specified)” was tested, and the TWIST expression [1] was “completely inhibit TWIST expression”, the TWIST knockdown [2] was “robust TWIST knockdown lasting one week post transfection” and the directional migration [3] was “decreased directional migration”.
